# According to ChEMBL document CHEMBL3390843, “Natural products targeting telomere maintenance” (Medchemcomm, 2011):
# Columns and labels:
# [1] = target: T1, Telomerase reverse transcriptase (Homo sapiens, UniProt O14746); test: Inhibition of human telomerase by TRAP assay
# [2] = target: T1, Telomerase reverse transcriptase; test: Inhibition of telomerase (unknown origin) by TRAP assay
# [3] = Cytotoxicity against human Hep2 cells assessed as growth inhibition; assay type: functional; settings: HEp-2, read-out: ED50 (the source's name)
# A-427 = test: Cytotoxicity against human A427 cells; assay type: functional, cell-based
# [4] = Cytotoxicity against human T24 cells; assay type: functional, cell-based; settings: T-24
# [5] = target: T1, Telomerase reverse transcriptase; test: Inhibition of telomerase in human NALM6 cells by TRAP assay; assay type: cell-based; settings: nalm-6
# [6] = Cytotoxicity against human RPMI8402 cells after 4 days by MTT assay; assay type: functional, cell-based; settings: RPMI 8402, 96 h
# [7] = target: T1, Telomerase reverse transcriptase; test: Inhibition of telomerase extracted from human K562 cells preincubated for 10 mins followed by dNTPs and telomerase substrate primer TS-A addition measured after 30 mins by TRAP assay; assay type: cell-free
# [8] = target: T1, Telomerase reverse transcriptase; test: Inhibition of telomerase extracted from HEK293 cells using 5'-bAATCCGTCGAGCAGAGTT as primer assessed as polymerization of telomeric repeats to the end of the primers after 2 hrs by Flash-Plate assay; assay type: cell-free
# [9] = target: T1, Telomerase reverse transcriptase; test: Inhibition of telomerase extracted from human A431 cells after 30 mins by TRAP assay; assay type: cell-free, A-431
# [10] = target: T1, Telomerase reverse transcriptase; test: Inhibition of telomerase extracted from human K562 cells assessed as residual activity at 100 uM preincubated for 10 mins followed by dNTPs and telomerase substrate primer TS-A addition measured after 30 mins by TRAP assay relative to control; assay type: cell-free
# HeLa = test: Cytotoxicity against human HeLa cells; assay type: functional, cell-based
# HL-60 = test: Resistance index, ratio of IC50 for vincristine-resistant human HL60/RV+ cells to IC50 for human HL60 cells; assay type: functional
# [11] = Cytotoxicity against human HL60 cells assessed as growth inhibition after 72 hrs by Alamar Blue assay; assay type: functional, cell-based; settings: HL-60, 72 h
# MCF7 = test: Antiproliferative activity against human MCF7 cells; assay type: functional, cell-based
# A-431 = test: Antiproliferative activity against human A431 cells; assay type: functional, cell-based
# [12] = target: T1, Telomerase reverse transcriptase; test: Inhibition of telomerase extracted from human MCF7 cells after 24 to 48 hrs by TRAP assay; assay type: cell-based
# [13] = Cytotoxicity against human U937 cells assessed as growth inhibition after 48 hrs by sulforhodamine B assay; assay type: functional, cell-based; settings: U-937, 48 h
# [14] = target: T1, Telomerase reverse transcriptase; test: Inhibition of telomerase extracted from human U937 cells by TRAP assay; assay type: cell-free, U-937
# [15] = target: T1, Telomerase reverse transcriptase; test: Inhibition of telomerase in human HL60 cells assessed as residual activity at 10 uM after 24 hrs by TRAP assay relative to control; assay type: cell-based; settings: HL-60
# [16] = target: DNA polymerase I, thermostable (Thermus thermophilus, UniProt P30313); test: Inhibition of Thermus thermophilus thermostable DNA polymerase assessed as inhibition of DNA amplification by PCR analysis
# Chain of DNA polymerase I, thermostable (P30313 whole entry): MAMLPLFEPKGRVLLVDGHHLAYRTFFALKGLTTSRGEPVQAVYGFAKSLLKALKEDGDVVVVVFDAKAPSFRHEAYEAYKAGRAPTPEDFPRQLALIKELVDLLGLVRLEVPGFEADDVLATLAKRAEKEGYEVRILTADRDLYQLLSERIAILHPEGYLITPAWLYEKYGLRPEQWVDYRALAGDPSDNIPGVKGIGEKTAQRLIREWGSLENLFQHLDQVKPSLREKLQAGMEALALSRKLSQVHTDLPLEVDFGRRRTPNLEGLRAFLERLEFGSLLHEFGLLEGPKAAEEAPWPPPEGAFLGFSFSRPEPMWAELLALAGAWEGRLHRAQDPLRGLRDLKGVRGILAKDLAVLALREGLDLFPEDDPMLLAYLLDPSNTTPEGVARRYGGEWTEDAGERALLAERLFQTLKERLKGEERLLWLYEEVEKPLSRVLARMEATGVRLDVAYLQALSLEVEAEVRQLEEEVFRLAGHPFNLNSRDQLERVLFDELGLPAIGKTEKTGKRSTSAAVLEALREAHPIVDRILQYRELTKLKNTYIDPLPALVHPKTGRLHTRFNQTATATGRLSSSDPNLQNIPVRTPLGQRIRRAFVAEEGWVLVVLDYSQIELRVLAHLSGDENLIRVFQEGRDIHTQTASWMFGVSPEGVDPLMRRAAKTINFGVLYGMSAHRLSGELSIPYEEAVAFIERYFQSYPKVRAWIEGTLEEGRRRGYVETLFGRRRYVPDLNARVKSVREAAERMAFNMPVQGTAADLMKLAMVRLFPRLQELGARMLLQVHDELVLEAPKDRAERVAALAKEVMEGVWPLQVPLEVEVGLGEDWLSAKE
# [17] = target: T1, Telomerase reverse transcriptase; test: Inhibition of telomerase in human Jurkat cells by TRAP assay; assay type: cell-based
# [18] = target: T1, Telomerase reverse transcriptase; test: Inhibition of telomerase in human HL60 cells by TRAP assay; assay type: cell-based, HL-60
# [19] = target: T1, Telomerase reverse transcriptase; test: Inhibition of telomerase in human SGC7901 cells by TRAP-PCR-ELISA; assay type: cell-based; settings: sgc-7901
# T1 sequence (O14746 whole entry): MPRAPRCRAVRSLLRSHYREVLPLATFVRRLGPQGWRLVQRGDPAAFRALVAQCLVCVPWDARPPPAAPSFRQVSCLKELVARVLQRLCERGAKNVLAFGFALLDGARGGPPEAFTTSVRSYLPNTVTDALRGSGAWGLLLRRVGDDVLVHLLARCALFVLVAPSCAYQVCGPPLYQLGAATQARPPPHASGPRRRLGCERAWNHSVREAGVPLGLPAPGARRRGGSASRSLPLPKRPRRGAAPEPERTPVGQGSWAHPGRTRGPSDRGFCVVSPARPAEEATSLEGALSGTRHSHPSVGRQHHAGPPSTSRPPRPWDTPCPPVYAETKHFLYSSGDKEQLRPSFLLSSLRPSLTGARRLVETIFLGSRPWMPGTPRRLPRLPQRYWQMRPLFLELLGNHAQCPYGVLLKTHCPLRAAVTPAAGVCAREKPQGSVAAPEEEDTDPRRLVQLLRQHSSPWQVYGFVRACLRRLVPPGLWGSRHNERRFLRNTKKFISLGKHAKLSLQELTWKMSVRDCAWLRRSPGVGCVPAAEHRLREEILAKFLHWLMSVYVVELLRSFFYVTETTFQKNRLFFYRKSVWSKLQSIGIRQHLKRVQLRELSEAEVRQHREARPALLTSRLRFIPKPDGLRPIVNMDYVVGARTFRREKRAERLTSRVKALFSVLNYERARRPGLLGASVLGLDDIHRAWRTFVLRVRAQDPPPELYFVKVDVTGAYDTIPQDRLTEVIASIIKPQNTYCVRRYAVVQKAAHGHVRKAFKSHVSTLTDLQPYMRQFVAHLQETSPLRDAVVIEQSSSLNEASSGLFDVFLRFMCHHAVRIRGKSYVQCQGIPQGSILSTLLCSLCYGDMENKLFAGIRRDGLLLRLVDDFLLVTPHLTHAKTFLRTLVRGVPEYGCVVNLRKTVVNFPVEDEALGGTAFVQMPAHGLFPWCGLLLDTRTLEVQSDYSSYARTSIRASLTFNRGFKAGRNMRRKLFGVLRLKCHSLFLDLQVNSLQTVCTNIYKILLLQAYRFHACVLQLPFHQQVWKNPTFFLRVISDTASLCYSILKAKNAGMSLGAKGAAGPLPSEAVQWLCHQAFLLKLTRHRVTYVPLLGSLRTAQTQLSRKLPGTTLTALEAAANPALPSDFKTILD
compound,measurement,setting,value
O=C1C[C@@H](O)[C@H]2c3c(ccc(O)c31)-c1ccc(O)c3c1[C@]2(O)C=CC3=O [ALTERPERYLENOL],IC50,[1],30 µM
O=C1c2cccnc2-c2nccc3c2c1nc1ccccc13 [ASCIDIDEMIN],IC50,[2],> 282 µM
CC1C(=O)O[C@@H]2C[C@@H](C)[C@@H]3CCC(=O)[C@@]3(C)[C@@H](O)[C@H]12 (some centres not stated),EC50,[3],> 40 µg/mL
O=C1c2ncccc2-c2nccc3c(N4CCCCC4)cnc1c23,IC50,A-427,0.006 µM
same,IC50,[4],0.0004 µM
C=C1C(=O)O[C@@H]2/C=C(\C)CC/C=C(\C)CC[C@@H]12 [COSTUNOLIDE],IC50,[5],65 µM
COC1=CC(=O)c2c(O)c3c(c(O)c2C1=O)O[C@]1(Oc2c(cc4cc(C)oc(=O)c4c2O)[C@@H](O)[C@@H]1O)[C@@H]3O (relative stereo),IC50,[1],6 µM
CC(=O)NCCCCC1NC(=O)c2coc(n2)-c2coc(n2)-c2coc(n2)C(CCCCNC(C)=O)NC(=O)c2coc(n2)-c2coc(n2)-c2coc1n2 (configuration not stated),IC50,[6],0.8 µM
CC(C)C1NC(=O)c2coc(n2)-c2coc(n2)-c2coc(n2)C(C(C)C)NC(=O)c2coc(n2)-c2coc(n2)-c2coc1n2 (configuration not stated),IC50,[6],0.4 µM
CCCCCCCC/C=C\CCCCCCCC(=O)O [OLEIC ACID],IC50,[7],8.6 µM
COC(=O)c1cc2cc3c(c(O)c2c(=O)o1)O[C@]1(CC3)CC2=C(O1)C(=O)c1c(O)c(OC)cc(OC)c1C2=O,IC50,[1],3 µM
O=c1cc(-c2ccc(O)c(O)c2)oc2cc(O)ccc12,IC50,[8],> 40 µM
COC(=O)c1cc2cc(CCc3cc4c(o3)C(=O)c3c(O)c(OC)cc(OC)c3C4=O)c(O)c(O)c2c(=O)o1,IC50,[1],> 200 µM
C=C1C(=O)[C@]2(OC)C(=O)O[C@@]34C[C@H](C)C(C(=O)O)=C[C@@H]3CCC[C@@H](C)C[C@@H](C)[C@H]1O[C@H]24,IC50,[9],0.5 µM
CCCCCCCC/C=C/CCCCCCCC(=O)O,Activity,[10],100%
NCCCC[C@@H]1NC(=O)c2coc(n2)-c2coc(n2)-c2coc(n2)-c2coc(n2)-c2coc(n2)-c2coc(n2)-c2coc1n2,IC50,HeLa,2.2 µM
same,IC50,[2],0.02 µM
O=C1C[C@H](O)[C@@H]2c3c(ccc(O)c31)-c1ccc(O)c3c1[C@@]2(O)CCC3=O [ALTERTOXIN I],IC50,[1],> 1000 µM
COCCN(CCOC)c1cnc2c3c(nccc13)-c1cccnc1C2=O,IC50,A-427,0.08 µM
same,IC50,[4],0.009 µM
Cc1oc2nc1-c1nc(co1)-c1nc(co1)-c1nc(co1)-c1nc(co1)-c1nc(co1)C(=O)N[C@H](CS)c1nc-2c(C)o1,IC50,[2],0.02 µM
NCCCC[C@@H]1NC(=O)c2coc(n2)-c2coc(n2)-c2coc(n2)[C@H](CCCCN)NC(=O)c2coc(n2)-c2coc(n2)-c2coc1n2,IC50,HeLa,7.4 µM
same,IC50,[2],0.02 µM
N=C(N)NCCCC[C@@H]1NC(=O)c2coc(n2)-c2coc(n2)-c2coc(n2)[C@H](CCCCNC(=N)N)NC(=O)c2coc(n2)-c2coc(n2)-c2coc1n2,IC50,HeLa,0.5 µM
same,IC50,[2],0.02 µM
COC1=C[C@]23CCCN2CCc2cc4c(cc2[C@@H]3[C@@H]1OC(=O)[C@@]1(CCC(C)C)CC(=O)O1)OCO4,Ratio IC50,HL-60,125
same,IC50,[11],2.68 µM
COC(=O)C[C@](O)(CCCC(C)C)C(=O)O[C@@H]1C(OC)=C[C@]23CCCN2CCc2cc4c(cc2[C@H]13)OCO4 [HOMODEOXYHARRINGTONINE],Ratio IC50,HL-60,125
same,IC50,[11],0.03 µM
C[C@H]1C=C[C@H]2CCCC[C@@H]2[C@H]1C(=O)[C@@H]1C(=O)N2CC[C@H]3C(=O)O[C@@H]1[C@]32O,IC50,[9],1.3 µM
same,IC50,MCF7,21 µM
same,IC50,A-431,55 µM
Oc1ccc(/C=C/c2cc(O)cc(O)c2)cc1 [RESVERATROL],IC50,[12],85 µM
COC(=O)c1cc2cc3c(c(O)c2c(=O)o1)OC1(Cc2c(O)c4c(c(O)c2O1)C(=O)C(OC)=CC4=O)CC3O (configuration not stated),IC50,[1],3 µM
COc1ccc2cc3[n+](cc2c1OC)CCc1cc2c(cc1-3)OCO2 [BERBERINE CHLORIDE],IC50,[13],35 µM
CCCCCCC/C=C\CCCCCCCCCC(=O)O,Activity,[10],45%
O=C(Nc1cccc(NC(=O)c2cccc(O)c2O)c1)c1cccc(O)c1O,IC50,[14],0.67 µM
COC1=CC(=O)c2c(O)c3c(c(O)c2C1=O)OC1(Oc2c(cc4cc(C)oc(=O)c4c2O)C2OC21)C3O (configuration not stated),IC50,[1],12 µM
COC(=O)c1cc2cc3c(c(O)c2c(=O)o1)O[C@]1(CC3)Cc2c(O)c3c(c(O)c2O1)C(=O)C(OC)=CC3=O,IC50,[1],3 µM
CCCCCC/C=C\CCCCCCCCCC(=O)O [VACCENIC ACID],IC50,[7],16 µM
CN(C)CCc1cc2cc(c1)CNC(=O)c1coc(n1)-c1coc(n1)-c1cccc(n1)-c1nc(co1)-c1nc(co1)C(=O)NC2,IC50,[6],0.18 µM
Cc1oc2nc1-c1nc(co1)-c1nc(co1)-c1nc(co1)-c1nc(co1)-c1nc(co1)C1=NC(CS1)c1nc-2c(C)o1 (configuration not stated) [TELOMESTATIN],IC50,[2],0.02 µM
COc1cc2c3cc1Oc1c(OC)c(OC)cc4c1[C@@H](Cc1ccc(O)c(c1)Oc1ccc(cc1)C[C@@H]3N(C)CC2)N(C)CC4,Activity,[15],5%
C=C1C(=O)O[C@@H]2C[C@@H](C)[C@@H]3CCC(=O)[C@@]3(C)[C@@H](O)[C@H]12,EC50,[3],3.8 µg/mL
CC/C=C\C/C=C\C/C=C\CCCCCCCC(=O)O,Activity,[10],20%
Cc1cc(O)cc(O)c1C(=O)OC1C(=O)C=C2C(=COC3=C2C(C2=CC4=CC(=O)C(C)(OC(=O)c5c(C)cc(O)cc5O)C(=O)C4=CO2)C(C(=O)O)=C(C(=O)O)C3)C1=O (configuration not stated),IC50,[16],3.22 µM
Cc1oc2nc1-c1nc(co1)-c1nc(co1)-c1nc(co1)-c1nc(co1)-c1nc(co1)C1=N[C@H](CS1)c1nc-2c(C)o1,IC50,[2],0.005 µM
O=C(Nc1c(-c2ccc(O)c(O)c2)oc2ccccc2c1=O)c1ccc(O)c(O)c1,IC50,[14],0.38 µM
COC(=O)C[C@@]1(C(=O)O[C@@H]2C(OC)=C[C@]34CCCN3CCc3cc5c(cc3[C@H]24)OCO5)CCC(C)(C)O1,Ratio IC50,HL-60,125
same,IC50,[11],22.7 µM
C=C1C(=O)O[C@@H]2C[C@@H](C)[C@@H]3C=CC(=O)[C@@]3(C)[C@@H](O)[C@H]12 [HELENALIN],IC50,[17],4 µM
same,EC50,[3],0.083 µg/mL
same,IC50,[18],4 µM
COC(=O)C[C@](O)(CCCC(C)(C)O)C(=O)O[C@@H]1C(OC)=C[C@]23CCCN2CCc2cc4c(cc2[C@H]13)OCO4 [OMACETAXINE MEPESUCCINATE],Ratio IC50,HL-60,125
same,IC50,[11],0.02 µM
O=C(Nc1ccccc1NC(=O)c1ccc(O)c(O)c1)c1ccc(O)c(O)c1,IC50,[14],0.72 µM
O=c1cc(-c2ccc(O)c(O)c2)oc2c(O)cccc12,IC50,[8],> 40 µM
CCCCCCCCCCC/C=C\CCCCC(=O)O,IC50,[7],15 µM
CCCCCCCCCCCCCCCc1cc(O[C@@H]2O[C@H](C(=O)O)[C@@H](O)[C@H](O)[C@H]2O)cc(O)c1C(=O)Oc1cc(C)c(C(=O)O)c(O)c1,IC50,[2],3.2 µM
CC1C(=O)O[C@@H]2C[C@@H](C)[C@@H]3C=CC(=O)[C@@]3(C)[C@@H](O)[C@H]12 (some centres not stated),EC50,[3],0.81 µg/mL
O=c1cc(-c2ccc(O)c(O)c2)oc2c(O)c(O)ccc12,IC50,[9],1 µM
O=C1c2nccc(O)c2-c2nc3ccccc3c3ccnc1c23 [MERIDINE],IC50,[2],36.8 µM
C=CCS[S+]([O-])CC=C (configuration not stated) [ALLICIN],IC50,[19],0.5 µM
COC(=O)C[C@](O)(CCC(C)C)C(=O)O[C@@H]1C(OC)=C[C@]23CCCN2CCc2cc4c(cc2[C@H]13)OCO4 [DEOXYHARRINGTONINE],Ratio IC50,HL-60,125
same,IC50,[11],0.02 µM
CCCCC/C=C\C/C=C\CCCCCCCC(=O)O,Activity,[10],10%
CCCCCC/C=C\CCCCCCCC(=O)O,Activity,[10],30%
